Reference: patent US6774144B1, “Methods and formulations for the treatment of infectious bursal disease in avian subjects” (The University of North Carolina at Chapel Hill, priority 1999, dated 2004)

Assays:
[1] = system: Delaware Variant A strain of IBDV; test: In vitro IBDV replication assay in chick embryo fibroblasts (viral antigen capture ELISA); settings: compounds maintained in the culture medium throughout
cells = test: MTT assay for cell viability (cell toxicity); format: cell-based; settings: highest concentration tested 1 mM
Description: BABIM, SW066, and DAP092 were assessed for cell toxicity using the MTT assay for cell viability described in T. Mossman, J. Immunol. Methods 65, 55-63 (1983). […] 10 μl of MTT reagent was added to each wall and incubated for four hours at 38° C. Acid-isopropanol was added to stop the reaction and plates were read within one hour at 570 nm and 630 nm. The 630 nm reading was subtracted from the 570 nm reading. No toxicity was reported for BABIM.

APHIS isolate of IBDV = test: In vivo drug treatment of IBDV-challenged SPF leghorn chickens (Example 10); settings: for appearance of bursas upon necropsy: 20 mg/kg nares/cloaca; for appearance of bursas upon necropsy / Lymphocyte Population Per Gram of Bursal tissue, Percentage Uninfected Control: three days; for Lymphocyte Population Per Gram of Bursal tissue, Percentage Uninfected Control: 100 EID APHIS IBDV at three weeks of age, 20 mg/kg, half in the nares, half in the cloaca; for lymphocyte populations: three days after infection
Description: SPF leghorn chickens were challenged at three weeks of age with an 100 EID APHIS isolate of IBDV. Approximately 12 birds were contained in an isolator unit with four units being employed. In each isolator unit, two birds received either drug or a placebo. One unit contained uninfected controls. The birds are treated with the drugs SW066, DAP092, DB453, DB197, and DB203 for three days. Half of the drug dosage was administered in the nares, while the second half was administered in the cloaca, at a dosage of 20 mg/kg. At necropsy, the birds were weighed, their bursa removed, weighed, and ground with a tissue homogenizer. The ground bursa material was evaluated for lymphocyte counts and viral load.

APHIS strain IBDV = test: Leghorn drug study (Example 13); format: in vivo, Leghorns; settings: for protection against IBDV (rank order): 100 EID APHIS IBDV, one mL of 4 mg/ml orally at challenge, 24 and 48 hours PI, necropsy three days post-challenge
Description: The procedure according to Example 12 was carried out with the following modifications: the drugs SW066, DB197, DB528, DB203 and DAP092 were tested in three week old Leghorns for protection against 100 EID of APHIS strain IBDV. The drugs were suspended in histidine-saline and used at a concentration of 4 mg/ml. One mL of drug was administered orally on the day of challenge (30 minutes prior to challenge), 24 hours PI and 48 hours PI. Birds were euthanised by CO2 inhalation and necropsied at three days post-challenge. Each drug and placebo cohort consisted of eight leghorns. Birds were weighed and sorted on the day of challenge to co-mingle birds of different weights and monitor drug dose per body weight. Birds were raised in isolation units. Each unit held 12 birds, two birds for each of the six cohorts (i.e., placebo, SW066, DB197, DB528, DB203 and DAP092). In addition, 12 uninfected birds were housed in a separate isolation unit.
The viral load of the bursa was determined by antigen capture ELISA, as described in Example 2, while absolute lymphocyte cell counts were determined by hemocytometer.

IBDV [2] = test: Trypsin competition experiment; format: cell-based, infectious bursal disease virus; settings: trypsin 1 mg/ml added to the cells in culture
Description: It is known that the addition of trypsin can enhance the attachment and penetration of respiratory syncytial virus and rotavirus. A trypsin competition experiment was performed in order to confirm that the activity of the inventive compounds of the present invention is not the result of protease-mediated virus attachment or penetration, as follows: trypsin (1 mg/ml) was added to the cells in culture described above in Example 6.

APHIS IBDV strain [3] = test: Evaluation of drug effect to prevent or inhibit IBD, oral SW066 (Example 11); format: in vivo, chicks
Description: Chicks were placed in four groups of nine birds each. The four groups were: (1) no virus control (placebo), (2) no virus control (treated with SW066), (3) APHIS IBDV strain at 130 EID (placebo), and (4) APHIS IBDV strain at 130 EID (treated with SW066). The birds were challenged at two weeks of age with 10 μL of the APHIS strain divided between the eye and nares. The drug was administered orally, one mL at a concentration of five mg/mL. […] Daily drug treatment began the same day and 30 minutes prior to challenge. After seven days, survivors were sacrificed and necropsied.
The virus is believed to cause necrosis in the bursa and to reach a plateau of virus level at three days post-challenge. As the inflammation begins to subside, the organ decreases in size and is severely atrophied at seven to ten days post-challenge. The bursa weight is accordingly a measure of bursal disease severity and was used in this experiment to detect differences between treatment groups.

APHIS IBDV strain [4] = test: Evaluation of drug effect to prevent or inhibit IBD, SW066 intravenous and prodrug oral (Example 12); format: in vivo, chicks
Description: The procedure according to Example 11 was carried out, with a variation in which chicks were placed in six groups of ten birds each, as follows: (1) no virus control (oral placebo), (2) no virus control (SW066 intravenous), (3) no virus control (prodrug of SW066 oral), (4) APHIS IBDV strain 130 EID (oral placebo), (5) APHIS IBDV strain 130 EID (SW066 intravenous), and (6) APHIS IBDV strain 130 EID (prodrug of SW066 oral). The birds were challenged at three weeks of age with 100 μl of APHIS strain divided between the eye and nares. Drug was administered intravenously or orally. The prodrug version of SW066 was used via the oral route to enhance absorption. Daily drug treatment began the same day and thirty minutes prior to challenge. After seven days, survivors were sacrificed and necropsied.

IBDV [5] = test: Virucidal effect: viability of virions produced in the presence of drug, second set of CEF cultures; format: cell-based, infectious bursal disease virus
Description: IBDV-infected cells were treated with varying concentrations (0.01 μM, 0.1 μM, 1 μM, 10 μM and 100 μM) of SW066 for 24 hours. After 24 hours, SW066 was washed away from the cell. After 72 hours of total incubation time (i.e., after the life cycle of IBDV is predicted to be complete), the resulting virions were harvested, as described above.
In order to determine if the virions produced in the presence of drug are viable, varying dilutions of these viral preparations were used to inoculate a second set of CEF cultures. Concentrations of the viral dilutions were as follows: 1.00E-10, 1.00E-09, 1.00E-08, 1.00E-07, 1.00E-06 and 1.00E-05. After 72 hours of incubation, cells were treated by a freeze-thaw method to harvest viral particles, and were assayed by ELISA as described in Example 2.

IBDV Variant A = format: cell-based, infectious bursal disease virus; settings: 0.1 mM drug
IBDV [6] = format: cell-based, infectious bursal disease virus

With `N=C(N)c1ccc2nc(Cc3nc4ccc(C(=N)N)cc4[nH]3)[nH]c2c1` [BABIM] the “inhibition of IBDV replication (virion formation)” value [1] was “most significant decrease of virion formation” and the “cell toxicity (MTT assay)” value (cells) was “No toxicity”.

In the case of `Cc1cnc(-c2ccc(C3=NCCN3)cc2)nc1-c1ccc(C2=NCCN2)cc1` [DB197], the “appearance of bursas upon necropsy” value (APHIS isolate of IBDV) is reported as “appeared identical to those from the uninfected control group”, the “Lymphocyte Population Per Gram of Bursal tissue, Percentage Uninfected Control” value (APHIS isolate of IBDV) is reported as 60.5 Percentage Uninfected Control and the lymphocyte populations (APHIS isolate of IBDV) is reported as “maintenance of relatively normal lymphocyte populations”. The “protection against IBDV (rank order)” value (APHIS strain IBDV) was “the most protection”, the “lymph per bursa cell number versus uninfected controls” value (APHIS strain IBDV; t-test, p-value=0.01) was “significantly different from uninfected controls” and the “lymph per bursa cell number (rank among groups)” value (APHIS strain IBDV; three days post-challenge) was “the highest”.

For `COc1cc(C2=NCCN2)ccc1-c1ccnc(-c2ccc(C3=NCCN3)cc2)n1` [DB203], the “appearance of bursas upon necropsy” value (APHIS isolate of IBDV) was “appeared identical to those from the uninfected control group”, the “Lymphocyte Population Per Gram of Bursal tissue, Percentage Uninfected Control” value (APHIS isolate of IBDV) was 51.3 Percentage Uninfected Control and the lymphocyte populations (APHIS isolate of IBDV) was “maintenance of relatively normal lymphocyte populations”. For the same compound, the “protection against IBDV (rank order)” value (APHIS strain IBDV) was “DB197>DB203>DB528>DAP092>SW066”.

For `N=C(N)c1ccc2oc3ccc(C(=N)N)cc3c2c1` [SW066], the “effect of the presence of trypsin on the drug's activity” value (IBDV [2]) was “not found to inhibit the drug's activity”, the “Lymphocyte Population Per Gram of Bursal tissue, Percentage Uninfected Control” value (APHIS isolate of IBDV) was 4.3 Percentage Uninfected Control and the “bursa weights versus placebo group” value (APHIS IBDV strain [3]; 130 EID APHIS IBDV, oral one mL of five mg/mL daily, seven days, p=0.05) was “higher in the drug treatment group compared to the placebo group”. The “post-challenge titers, infected drug versus placebo group” value (APHIS IBDV strain [3]; 130 EID APHIS IBDV, oral, seven days) was “not significantly different”, the “deaths in the challenge group” value (APHIS IBDV strain [3]; groups of nine birds, same number died with placebo) was “Two birds died” and the bursa histology score (APHIS IBDV strain [3]; infected birds, placebo group all scored four, remaining drug birds scored four) was “two birds in the drug group (n=7) were scored as three”. The “protection from IBDV induced B-cell depletion” value (APHIS IBDV strain [3]; oral, 130 EID) was “some protection”, the “protection against IBDV (rank order)” value (APHIS strain IBDV) was “DB197>DB203>DB528>DAP092>SW066” and the “bursa weight of survivors, difference between groups” value (APHIS IBDV strain [4]; SW066 intravenous or prodrug oral, seven days) was “No statistical significant difference”. The mortality (APHIS IBDV strain [4]; SW066 intravenous, APHIS IBDV 130 EID, ten birds, placebo 40%) was 10%, the “long term drug effect in the second set of cultures” value (IBDV [5]; 10 μM of drug) was “long term drug effect was also observed for some virus dilutions” and the “duration of the virucidal effect” value (IBDV [5]; drug for 24 hours then washed away, virions harvested at 72 hours) was “not transient”. For the same compound, the “virus propagation in the second set of cultures” value (IBDV [5]; first set of cultures treated at 100 μM, with the exception of the 10^-5 dilution of virus) was “did not propagate virus”, the “lowest concentration of drug that demonstrated anti-viral activity” value (IBDV [5]; with the 10^-10 dilution of virus) was 1 µM and the “effectiveness in decreasing virion formation (comparison of the three compounds)” value (IBDV Variant A) was “most effective”. For the same compound, the “effect in reducing IBDV production” value (IBDV Variant A; even at the high concentrations of virus) was “significant effect in reducing IBDV production”, the “cytopathic effect (CPE), inverted microscope” value (IBDV Variant A; highest concentration of virus) was “Very little CPE” and the “inhibition of IBDV replication (virion formation)” value [1] was “most significant decrease of virion formation”. For the same compound, the “virus production when drug is added after infection” value (IBDV [6]; added after 12 hours) was “very little potential effect on virus production”, the “virus replication when drug is added after infection” value (IBDV [6]; added prior to the 12 hour incubation time point) was “potentially substantial inhibition of virus replication” and the “virus production when drug is removed by washing” value (IBDV [6]; drug remains in the culture past the one hour time point) was “significant decrease in virus production”. The “virion formation when drug is removed by washing” value (IBDV [6]; removed prior to one hour) was “little or no affect on virion formation” and the “cell toxicity (MTT assay)” value (cells) was “some toxicity may be associated”.
